This is an account of results in PMC5882690, “Mechanical characteristics of beta sheet-forming peptide hydrogels are dependent on peptide sequence, concentration and buffer composition” (Royal Society Open Science, 2018).

Data set [1] addresses T1, human neutrophil elastase (Homo sapiens, UniProt P08246).
T1 construct: purchased Innovative Research, USA
T1 sequence (P08246 30-267): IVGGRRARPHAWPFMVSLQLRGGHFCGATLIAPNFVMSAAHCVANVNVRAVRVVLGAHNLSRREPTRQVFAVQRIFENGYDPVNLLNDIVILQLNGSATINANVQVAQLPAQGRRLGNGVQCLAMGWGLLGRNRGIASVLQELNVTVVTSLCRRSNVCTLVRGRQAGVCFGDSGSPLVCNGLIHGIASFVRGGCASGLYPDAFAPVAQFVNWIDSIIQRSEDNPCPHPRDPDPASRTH
The data set can be described thus: SAP hydrogel degradation by human neutrophil elastase. In kind it is in vitro ADME. The settings on record: human neutrophil elastase 100 µg ml^-1 (86 units ml^-1) in PBS, 37°C, 5% CO2, 20 mg ml^-1 P11-4, 15 mg ml^-1 others, Qubit Protein Assay, mean ± SD, n = 3. The method, then:
(§1) SAP hydrogel dissolution and degradation properties of the peptides in the presence and absence of neutrophilic elastase and microorganisms were measured by determining the peptide content of the supernatant. Therefore, SAPs were assembled in PBS at concentrations of 20 mg ml^−1 for P11-4 and 15 mg ml^−1 for P11-8, P11-13/14 and P11-28/29. The assay was performed in a 96-well plate with gel volumes of 100 µl well^−1. 86 units ml^−1 elastase (Innovative Research, USA) (100 µg ml^−1) were added to the assembled peptides in PBS solution. After 24 h incubation at 37°C and 5% CO2, 10 µl of the supernatant was sterilely removed after 24 and 168 h and measured indirectly by monomeric peptide concentration in the supernatant using the Qubit® Protein Assay (Q33211; Thermo Fisher; fluorescence at 485/590 nm) and transferred back for the remainder of the experiment allowing peptide hydrogel degradation measurement without disturbing the hydrogel to buffer fluid balance. The measurements are based on the fact that degraded peptides cause disassembly of the fibrils, as assembly rules are no longer given, resulting in an increase in monomeric SAP in solution. SAP concentrations were calculated based on respective peptide standard curves. For data analysis, SAP concentrations measured in the supernatant were calculated as a percentage of the specific starting concentrations of each peptide system. Statistical analysis was done using a two-way ANOVA followed by Sidak's multiple comparison test.

A short description of data set [2]: SAP hydrogel dissolution in PBS or TYSB medium (peptide content of supernatant). In kind it is physicochemical. The following applies: 37°C, 20 mg ml^-1 P11-4, 15 mg ml^-1 others, Qubit Protein Assay, mean ± SD, n = 3. The method, then: as §1
The stability of the hydrogels versus bacterial degradation was tested by the exposure to the bacterial strains Streptococcus mutans (S. mutans), Pseudomonas aeruginosa (P. aeruginosa) and Staphylococcus aureus (S. aureus; all from Leibniz-Institut DSMZ GmbH). Therefore, the bacterial strains were applied (10^6 CFU ml^−1) on the top of each gel (20 mg ml^−1 for P11-4 and 15 mg ml^−1 for P11-8, P11-13/14 and P11-28/29) in their respective media (Neurobasal medium for P. aeruginosa (Thermo Fisher), Tryptic Soy Broth (TYSB) medium for S. mutans and S. aureus). After 1 and 7 days of incubation at 37°C, 10 µl of each supernatant was analysed subsequent to centrifugation of the samples using the Qubit® Protein Assay. Calculations were performed as described previously for the elastase degradation study. Statistical analysis was performed with Graphpad Prism version 6.0 using a two-way ANOVA followed by Dunnett's multiple comparison test.

Data set [3] can be described thus: Oscillatory amplitude sweep (storage modulus G′ in linear viscoelastic region, yield point). In kind it is physicochemical. The settings on record: for yield point YP / peptide hydrogel stiffness G′ / yield point YP (strain where G′ < 95% of original value): mean ± SD, n = 3; for peptide hydrogel stiffness G′: 140 mM ionic strength, assembled overnight; for peptide hydrogel stiffness G′ / yield point YP (strain where G′ < 95% of original value): 37°C. The protocol:
[…] The amplitude sweep tests were performed to measure storage moduli (G′) within the linear viscoelastic region. Calculations of the gel breaking points (yield points) were performed with MATLAB depending on the different peptide concentrations. Therefore, the yield strain was defined as the point where G′ is less than 95% of its original value. Oscillatory time sweep experiments were performed to study the gelation speed and hydrogel stiffness. Time sweeps up to 150 min measuring time using a frequency of 1 rad s^−1 and amplitude gamma of 0.05% were used. SAP hydrogel stiffness was determined after the equilibrium of the storage modulus (G′) was reached (t = 100 min). To determine the gelation speed, the slope of increasing storage modulus over time was calculated in the interval from t = 5 to 10 min after placing peptide solutions onto the rheometer.
To study SAP hydrogel stiffness within the linear viscoelastic region and gel breaking points according to the peptide concentrations, unary SAP hydrogels (300 µl) were prepared in vials at concentrations of 15 mg ml^−1, 20 mg ml^−1 and 30 mg ml^−1 by dissolving first the lyophilized peptides in 150 µl of buffer A and then adding 150 µl of peptide-specific Tris–NaCl buffer B according to table 1. Complementary SAP hydrogels (P11-13/14 and P11-28/29) were obtained by dissolving 150 µl of P11-13 in 0.1 M Tris buffer + 0.052 M NaCl pH 8 and 150 µl P11-14 in 0.055 M Tris buffer + 0.096 M NaCl pH 7.2 (table 1). The P11-13 and P11-14 solutions were then mixed (1 : 1) to obtain 300 µl of complementary SAP hydrogel with a final ionic strength of 140 mM and a pH of 7.2. All SAP hydrogels were allowed to assemble overnight.
To study the influence of divalent ions and different media on SAP hydrogel stiffness, gelation speed and gel breaking points (yield points), SAPs were prepared at a concentration of 15 mg ml^−1 in the different media, Tris–NaCl, Tris–MgSO4, DMEM or artificial saliva, according to table 1. All experiments were done at least in duplicate. Statistical evaluation was performed with GRAPHPAD PRISM version 6.0 based on a one-way ANOVA test followed by Tukey's multiple comparison test.

Where [4] appears, read: 15 mg ml^-1, Tris–NaCl, amplitude sweep.
[5] abbreviates: 20 mg ml^-1, Tris–NaCl, amplitude sweep.
[6] abbreviates: 30 mg ml^-1, Tris–NaCl, amplitude sweep.

Where a SMILES comes first, the peptide text is derived from it.

Consider `CC(=O)N[C@@H](CCC(N)=O)C(=O)N[C@@H](CCC(N)=O)C(=O)N[C@@H](CCCNC(=N)N)C(=O)N[C@@H](Cc1ccccc1)C(=O)N[C@@H](CCC(=O)O)C(=O)N[C@@H](Cc1c[nH]c2ccccc12)C(=O)N[C@@H](CCC(=O)O)C(=O)N[C@@H](Cc1ccccc1)C(=O)N[C@@H](CCC(=O)O)C(=O)N[C@@H](CCC(N)=O)C(=O)N[C@@H](CCC(N)=O)C(N)=O` [P11-4, CH3CO-QQRFEWEFEQQ-NH2] (Ac-QQRFEWEFEQQ-NH2), for which the “relative peptide amount in supernatant (% of peptide starting concentration)” value in data set [1] (1 d) was found to be 14.7± 2.8%; in data set [1] (7 d) it was 12.8± 5.8%; in data set [2] (Medium (TYSB), 1 d), 0.4± 0.1%; in data set [2] (Medium (TYSB), 7 d), 4.6± 2.5%; in data set [2] (PBS, 1 d, gel assembled in PBS, 100 µl, fluorescence 485/590 nm), 10.6± 5.7%; in data set [2] (PBS, 7 d, gel assembled in PBS, 100 µl, fluorescence 485/590 nm), 9.4± 4.4%. Also, the “yield point YP” value in data set [3] (15 mg ml^-1, Tris–MgSO4, amplitude sweep) was 0.05±0.03%; in data set [3] (setting [4]), 0.45± 0.05%; in data set [3] (15 mg ml^-1, artificial saliva, amplitude sweep up to 100% strain), 0.3 ± 0.02%; in data set [3] (15 mg ml^-1, serum-free DMEM, amplitude sweep up to 100% strain), 2.3 ± 0.44%. Also, the “peptide hydrogel stiffness G′” value in data set [3] (setting [4]) stood at 2.1± 1.0 kPa; in data set [3] (setting [5]), 2.4± 0.3 kPa; in data set [3] (setting [6]) it was 4.6± 1.3 kPa. The “yield point YP (strain where G′ < 95% of original value)” value in data set [3] (setting [4]) came out at 2.3±0.3%; in data set [3] (setting [5]) it was 1.3±0.3%; in data set [3] (setting [6]), 1.2±0.7%. In addition, the “factor of increase of SAP hydrogel stiffness” value in data set [3] (doubling SAP concentration from 15 to 30 mg ml^-1, Tris–NaCl) is 2.
